≈ marks a conversion by molar mass, not a printed value.
Conditions: buffer; pH 7.4; 200.0 µM

Row | Compound | solubility kinetic [µg/mL]
1 | CCOc1ccc(S(=O)(=O)Nc2ccc(C(=O)NCC(c3ccc(OC)cc3)N3CCOCC3)cc2)cc1 (stereo unspecified) | 37.9 (≈ 70.2 µM)
2 | Cc1ccccc1C(=O)NC(C)C1CC2CCC1C2 (stereo unspecified) | 28.5 (≈ 111 µM)
3 | COc1cccc(/C=C2\NC(=O)NC2=O)c1O | 32.6 (≈ 139 µM)
4 | CCC(CO)Nc1ncnc2onc(-c3ccc(F)cc3)c12 (stereo unspecified) | > 45.3
5 | O=C(COc1ccccc1)Nc1nc2c(s1)CCCC2 | 3.7 (≈ 12.8 µM)
6 | O=C(NCc1nc2ccccc2[nH]1)c1ccccc1F | > 40.4
7 | O=C(/C=C/c1ccc([N+](=O)[O-])cc1)NCCOc1ccc(F)cc1 | 4 (≈ 12.1 µM)
8 | CCCCn1c(O)c(/C=C2/C=CC=N2)c(=O)[nH]c1=O | 5.1 (≈ 19.5 µM)
9 | O=C(COC(=O)C1CCC(=O)N1)Nc1ccccc1OC(F)F (stereo unspecified) | > 49.2
10 | Nc1cccc(Nc2ccccc2)c1 | > 27.6
11 | COc1ccc(-n2ccc(=O)c(C(=O)O)n2)c(OC)c1 | > 41.4
12 | Brc1ccc(-c2ncc3ccccn23)cc1 | 29.3 (≈ 107 µM)
13 | COc1ccc(NC(=O)CCn2cc(C)c3ccccc32)cc1 | 4.4 (≈ 14.3 µM)
14 | O=C(CC(Cc1ccccc1)C(=O)O)Nc1ccc(F)cc1 (stereo unspecified) | > 45.2
15 | CCn1cc(C(=O)N2CCCCC2)c2ccccc21 | > 38.5
16 | NS(=O)(=O)c1ccc(CCNC(=O)c2ccc(Cl)nc2)cc1 | > 51
17 | Cc1ccc(-c2nc(N)sc2-c2ccc(C)cc2)cc1 | 0.5 (≈ 1.78 µM)
18 | CNS(=O)(=O)c1cccc(C(=O)OCC(=O)Nc2ccc3ccccc3c2)c1 | 2.8 (≈ 7.03 µM)
19 | CCCCc1c(C)nc2ccccc2c1SCCC(=O)O | > 45.5
20 | Cc1ccc(OCCCCCN2CCOCC2)c(Cl)c1 | 26.3 (≈ 88.3 µM)
21 | Cc1ccc(SC(C)C(=O)N2CCN(c3ccccc3)CC2)cc1 (stereo unspecified) | 34.9 (≈ 102 µM)
22 | CN(Cc1cccc(F)c1)C(=O)c1ccc2c(=O)n3c(nc2c1)CCC3 | 49.8 (≈ 142 µM)

Row | Compound | solubility kinetic [µg/mL]
23 | COc1cccc(C(=O)Nc2ccccc2-c2ccccc2)c1 | 24 (≈ 79.1 µM)
24 | CCOC(=O)N1CCN(C(=S)NC(=O)C2CCCC2)CC1 | > 47
25 | Cc1cc(SCC(=O)Nc2cccnc2Cl)nc2ccccc12 | < 0.2
26 | CN1C(=S)SC(C)(C)C1N(O)C(=O)Nc1ccc(Cl)cc1 (stereo unspecified) | 4.2 (≈ 12.1 µM)
27 | O=C(COc1ccccc1Cl)N1CCc2ccccc2C1 | 38.7 (≈ 128 µM)
28 | CC(C)(C)c1nc2cc(Cl)c([N+](=O)[O-])cc2o1 | 6.5 (≈ 25.5 µM)
29 | O=C(NCc1ccco1)c1ccc2[nH]c(=O)c(=O)[nH]c2c1 | > 42.8
30 | CCCCn1c(N)c(N(CC(C)C)C(=O)c2cnccn2)c(=O)[nH]c1=O | 53.9 (≈ 150 µM)
31 | O=C(c1ccc(F)cc1)C(C(=O)N1CCCCC1)n1ccccc1=O (stereo unspecified) | > 51.4
32 | COC(=O)C1CCN(C(=O)/C=C/c2ccc3c(c2)OCO3)CC1 | 34 (≈ 107 µM)
33 | COC(=O)c1ccc(NC(=O)CSc2nc3ncccc3[nH]2)cc1 | 3.5 (≈ 10.2 µM)
34 | Cl.O=C(OCCN1CCCCC1)c1cccc(F)c1 | > 43.2
35 | O=C(COC(=O)CC1CCS(=O)(=O)C1)Nc1ccc(F)cc1 (stereo unspecified) | > 49.4
36 | CCOc1ccc2nc(SCC3CC3(Cl)Cl)[nH]c2c1 (stereo unspecified) | 29.4 (≈ 92.7 µM)
37 | O=C(Cn1cncn1)N/N=C/c1ccccc1O | > 36.8
38 | Cc1ccc(SC(C)C(=O)NC2CC2)cc1 (stereo unspecified) | > 35.3
39 | Cn1cc(C(=O)C(=O)N2CCCC2)c2ccccc21 | > 38.4
40 | O=C(C[n+]1ccncc1)c1ccccc1.[Br-] | 6.4
41 | O=c1cc(CSc2ccccc2)[nH]c2ccccc12 | 39.7 (≈ 148 µM)
42 | COc1ccc(CNC(=O)c2c(C)cc(=O)oc2C)cc1 | > 43.1
43 | O=C(NCCO)C(=O)c1c(-c2ccccc2)cc2ccccn12 | 38.2 (≈ 124 µM)
44 | CCOP(=O)(OCC)C(Nc1ccc(C(=O)O)cc1)c1ccccc1 (stereo unspecified) | > 54.5

Row | Compound | solubility kinetic [µg/mL]
45 | Cc1ccc(NC(=O)CN2C(=O)C3CC=C(Cl)CC3C2=O)cc1 (stereo unspecified) | > 49.9
46 | CCNC(=S)N1CCC(NC(=O)c2ccco2)CC1 | > 42.2
47 | CC(=O)Nc1ccc(NC(=O)c2ccc(OCc3c(C)noc3C)cc2)cc1 | 2.2 (≈ 5.8 µM)
48 | N#CCNC(=O)C1c2ccccc2Oc2ccccc21 | 4.1 (≈ 15.5 µM)
49 | Cc1ccc(C(=O)NCCCNC(=O)c2ccc(Cl)cc2)cn1 | 36.6 (≈ 110 µM)
50 | O=C(CSc1ncccn1)NCC1CCCO1 (stereo unspecified) | > 38
51 | COc1ccc2c(c1)c(-c1csc(N)n1)c(C)n2C | 27.7 (≈ 101 µM)
52 | CN1C(=O)C(=O)/C(=C(/O)c2ccccc2)C1c1ccc(Br)cc1 (stereo unspecified) | > 55.8
53 | O=[N+]([O-])c1ccc(C(O)CSC(=S)N2CCCCC2)cc1 (stereo unspecified) | 2.6 (≈ 7.96 µM)
54 | COc1ccc(OC)c(N(CC(=O)N2CCOCC2)S(C)(=O)=O)c1 | > 53.8
55 | COc1ccc(NC2c3ccccc3C(=O)N2c2cccnc2)cc1 (stereo unspecified) | > 49.7
56 | CN1C(=O)[C@H](Cc2ccc([N+](=O)[O-])cc2)NC1=S | 28.1 (≈ 106 µM)
57 | CSc1nc(C(C)C)ccc1CNC(=O)CC(C)c1ccccc1 (stereo unspecified) | 1.3 (≈ 3.8 µM)
58 | O=C(Cc1ccccc1)N1CCN(CCCc2ccccc2)CC1.O=C(O)C(=O)O | > 61.9
59 | COc1cc(CC(=O)OCC(=O)NCc2ccco2)cc(OC)c1OC | > 54.5
60 | NS(=O)(=O)c1ccc(NC(=O)Nc2cccc3ccccc23)cc1 | 2.1 (≈ 6.15 µM)
61 | CC(C)c1ccc(OCC(=O)NCc2ccccc2)cc1 | 3.2 (≈ 11.3 µM)
62 | CCOC(=O)C1CCN(CCC(=O)Nc2ccc(C)cc2)CC1 | > 47.8
63 | CC(=O)Nc1ccc(NC(=O)COc2ccc(-c3ccccc3)cc2)cc1 | < 0.4
64 | COc1ccccc1CC(=O)NCCCc1ccccc1 | > 42.5
65 | Cc1ccc2c(c1)N(CC(=O)N1CCOCC1)C(=O)C(C)O2 (stereo unspecified) | 39.6 (≈ 130 µM)
66 | O=C(NC1CCCC1)c1ccc(Cl)s1 | 30.7 (≈ 134 µM)

Row | Compound | solubility kinetic [µg/mL]
67 | CC(C)(C)NC(=O)C1CCC(CNc2c(N3CCCCC3)c(=O)c2=O)CC1 (stereo unspecified) | > 56.3
68 | O=C(O)CSc1ccc(S(=O)(=O)N2CCCC2)cn1 | > 45.4
69 | CC1(C)CC(NCc2ccccc2)CCO1.Cl (stereo unspecified) | 34.2
70 | COCCn1c(N)c(Sc2ccc(C)cc2)c(=O)[nH]c1=O | > 46.1
71 | COc1ccc(OC)c(NC(=O)COC(=O)C2CCCCC2)c1 | 2.9 (≈ 9.02 µM)
72 | Cc1nc(-c2ccccn2)nc(SCC(=O)c2ccc(F)cc2)c1Cl | 2.4 (≈ 6.42 µM)
73 | CC(NC(=O)CCC(=O)N1CCCCCC1)c1ccccc1 (stereo unspecified) | > 45.4
74 | O=C(O)CN1C(=O)NC2(CCOc3ccccc32)C1=O (stereo unspecified) | > 41.4
75 | COc1ccc(CCNC(=O)c2cc(C)oc2C)cc1OC | 42 (≈ 138 µM)
76 | O=C(COC(=O)C1CC(=O)N(Cc2ccccc2)C1)Nc1cccc([N+](=O)[O-])c1 (stereo unspecified) | > 59.6
77 | CC(=O)Nc1ccc(NC(=O)Nc2cccc(Cl)c2)cc1 | 1.4 (≈ 4.61 µM)
78 | Cc1cc(NC(=O)C(=O)c2c(C)[nH]c3ccccc23)no1 | 28.2 (≈ 99.5 µM)
79 | CCCC(=O)OCC(=O)NCc1ccc(Cl)cc1 | 35.8 (≈ 133 µM)
80 | CN(C)CC/C=C1/c2ccc(F)cc2Sc2ccc(Cl)cc21.Cl | 26.1
81 | Nc1ccc(C(=O)Nc2cccc(NC(=O)c3ccc(N)cc3)c2)cc1 | 34.8 (≈ 100 µM)
82 | Cc1cc(C)c(C)c(OCC(=O)O/N=C(\N)c2ccncc2)c1 | 28.5 (≈ 91 µM)
83 | CSc1nc2ccccc2c(=O)n1-c1cccnc1 | 34.8 (≈ 129 µM)
84 | O=C(c1ccc(F)cc1)N1CCN(c2ccc([N+](=O)[O-])cc2-n2cccc2)CC1 | 3.3 (≈ 8.37 µM)
85 | CC(=O)/C=C\c1ccc(OC(=O)c2cccnc2)cc1 | 39.6 (≈ 148 µM)
86 | CC(C)(C)Nc1nc2ccc([N+](=O)[O-])cc2o1 | 31.9 (≈ 136 µM)

Source: PubChem BioAssay AID1996
